Assays:
lambsquarters [1] = experiment: Test C postemergence; assay type: in vivo, Chenopodium album; conditions: for Lambsquarters plant response rating: scale 0 to 100
Text: (§1) Seeds of plant species selected from blackgrass (Alopecurus myosuroides), ryegrass, Italian (Italian ryegrass, Lolium multiflorum), wheat (winter wheat, Triticum aestivum), galium (catchweed bedstraw, Galium aparine), corn (Zea mays), crabgrass, large (large crabgrass, Digitaria sanguinalis), foxtail, giant (giant foxtail, Setaria faberii), johnsongrass (Sorghum halepense), lambsquarters (Chenopodium album), morningglory (Ipomoea coccinea), nutsedge, yellow (yellow nutsedge, Cyperus esculentus), pigweed (redroot pigweed, Amaranthus retroflexus), ragweed (common ragweed, Ambrosia elation), soybean (Glycine max), barnyardgrass (Echinochloa crus-galli), oilseed rape (Brassica napus), waterhemp (common waterhemp, Amaranthus rudis), oat, wild (wild oat, Avena fatua), kochia (Kochia scoparia), Surinam grass (Brachiaria decumbens), foxtail, green (green foxtail, Setaria viridis), goosegrass (Eleusine indica), bromegrass, downy (downy bromegrass, Bromus tectorum), nightshade (eastern black nightshade, Solanum ptycanthum), cocklebur (common cocklebur, Xanthium strumarium), cupgrass, woolly (woolly cupgrass, Eriochloa villosa), bermudagrass (Cynodon dactylon), sunflower, (common oilseed sunflower, Helianthus annuus), Russian thistle (Salsola kali), and velvetleaf (Abutilon theophrasti) were planted into a blend of loam soil and sand and treated preemergence with test chemicals formulated in a non-phytotoxic solvent mixture which included a surfactant.
(§2) At the same time, plants selected from these crop and weed species and also chickweed (common chickweed, Stellaria media), canarygrass (littleseed canarygrass, Phalaris minor), and deadnettle (henbit deadnettle, Lamium amplexicaule), were planted in pots containing Redi-Earth® planting medium (Scotts Company, 14111 Scottslawn Road, Marysville, Ohio 43041) comprising spaghnum peat moss, vermiculite, wetting agent and starter nutrients and treated with postemergence applications of test chemicals formulated in the same manner. Plants ranged in height from 2 to 18 cm (1- to 4-leaf stage) for postemergence treatments. Treated plants and controls were maintained in a greenhouse for 13 to 15 days, after which time all species were compared to controls and visually evaluated. Plant response ratings, summarized in Table C, are based on a scale of 0 to 100 where 0 is no effect and 100 is complete control. A dash (-) response means no test result.

crabgrass, large = experiment: Test C postemergence; assay type: in vivo, Digitaria sanguinalis; conditions: for Crabgrass, Large plant response rating: scale 0 to 100
Text: as §1, §2

ragweed = experiment: Test C preemergence; assay type: in vivo, Ambrosia elation; conditions: for Plant response rating (scale of 0 to 100), Ragweed: Preemergence, 250 g ai/ha; for Ragweed plant response rating / Plant response rating, Ragweed: preemergence; for Plant response rating, Ragweed: 62 g ai/ha, scale 0 to 100, 0 = no effect, 100 = complete control
Text: as §1, §2

ryegrass, Italian = experiment: Test C postemergence; assay type: in vivo, Lolium multiflorum; conditions: postemergence
Text: as §1, §2

wheat [2] = experiment: Test C preemergence; assay type: in vivo, Triticum aestivum; conditions: for Plant response rating (scale of 0 to 100), Wheat: Preemergence, 250 g ai/ha; for Wheat plant response rating / Plant response rating, Wheat: preemergence; for Plant response rating, Wheat: 62 g ai/ha, scale 0 to 100, 0 = no effect, 100 = complete control
Text: as §1, §2

lambsquarters [3] = experiment: Test C preemergence; assay type: in vivo, Chenopodium album; conditions: for Plant response rating (scale of 0 to 100), Lambsquarters: Preemergence, 250 g ai/ha; for Lambsquarters plant response rating / Plant response rating, Lambsquarters: preemergence; for Plant response rating, Lambsquarters: 62 g ai/ha, scale 0 to 100, 0 = no effect, 100 = complete control
Text: as §1, §2

kochia = experiment: Test C postemergence; assay type: in vivo, Kochia scoparia; conditions: for Kochia plant response rating: scale 0 to 100
Text: as §1, §2

wheat [4] = experiment: Test A postemergence; assay type: in vivo, Triticum aestivum
Outline: (§3)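 Visual injury ratings, 0 = no effect to 100 = complete control, taken about 10 days after treatment against untreated controls. Test chemicals, in a non-phytotoxic surfactant-containing solvent, were sprayed onto soil preemergence or onto one- to two-leaf plants (2–10 cm) postemergence, in loam–sand soil under greenhouse conditions.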

corn = experiment: Test C preemergence; assay type: in vivo, Zea mays; conditions: for Plant response rating (scale of 0 to 100), Corn: Preemergence, 250 g ai/ha; for Corn plant response rating / Plant response rating, Corn: preemergence; for Plant response rating, Corn: 62 g ai/ha, scale 0 to 100, 0 = no effect, 100 = complete control
Text: as §1, §2

pigweed = experiment: Test A preemergence; assay type: in vivo, Amaranthus retroflexus; conditions: 0 to 100 scale
Outline: as §3

galium = experiment: Test C preemergence; assay type: in vivo, Galium aparine; conditions: for Plant response rating (scale of 0 to 100), Galium: Preemergence, 250 g ai/ha; for Galium plant response rating / Plant response rating, Galium: preemergence; for Plant response rating, Galium: 62 g ai/ha, scale 0 to 100, 0 = no effect, 100 = complete control
Text: as §1, §2

[5] = postemergence, 250 g ai/ha, scale 0 to 100 (0 no effect, 100 complete control)
[6] = postemergence, 62 g ai/ha, scale 0 to 100, 0 no effect, 100 complete control
[7] = postemergence, 125 g ai/ha, scale 0 to 100, 0 no effect, 100 complete control
[8] = 31 g ai/ha, scale 0 to 100 (0 no effect, 100 complete control), 13 to 15 days
[9] = 125 g ai/ha, scale 0 to 100, 0 is no effect, 100 is complete control
[10] = 250 g ai/ha, scale 0 to 100 (0 no effect, 100 complete control)
[11] = 62 g ai/ha, scale 0 to 100, 0 no effect, 100 complete control
[12] = 125 g ai/ha, scale 0 to 100, 0 no effect, 100 complete control
[13] = Postemergence, 500 g ai/ha, visual rating after approx. 10 days, 0 to 100 scale (0 no effect, 100 complete control)
[14] = postemergence, 125 g ai/ha, about 10 days, visual rating on 0 to 100 scale (0 no effect, 100 complete control)
[15] = Preemergence, 500 g ai/ha, 0 no effect, 100 complete control
[16] = preemergence, 125 g ai/ha, visual injury, approx. 10 days

Structure (SMILES): CCc1cc(C(=O)NOC(C)C)nn1Cc1cccc(OC(F)(F)F)c1 [Compound 70]
- Lambsquarters plant response rating (lambsquarters [1]; Postemergence, 31 g ai/ha): 75
- Plant response rating, Lambsquarters (lambsquarters [1]; [5]): 98
- Plant response rating, Lambsquarters (lambsquarters [1]; [6]): 95
- Plant response rating, Lambsquarters (lambsquarters [1]; [7]): 95
- Crabgrass, Large plant response rating (crabgrass, large; Postemergence, 31 g ai/ha): 5
- Plant response rating, Crabgrass, Large (crabgrass, large; [5]): 45
- Plant response rating, Crabgrass, Large (crabgrass, large; [6]): 10
- Plant response rating, Crabgrass, Large (crabgrass, large; [7]): 40
- Plant response rating (scale of 0 to 100), Ragweed (ragweed): 40
- Ragweed plant response rating (ragweed; [8]): 0
- Plant response rating, Ragweed (ragweed; 13 to 15 days): 25
- Ragweed plant response rating (ragweed; [9]): 30
- Plant response rating, Ryegrass, Italian (ryegrass, Italian; [10]): 50
- Plant response rating, Ryegrass, Italian (ryegrass, Italian; [11]): 25
- Plant response rating, Ryegrass, Italian (ryegrass, Italian; [12]): 35
- Plant response rating (scale of 0 to 100), Wheat (wheat [2]): 75
- Wheat plant response rating (wheat [2]; [8]): 5
- Plant response rating, Wheat (wheat [2]; 13 to 15 days): 10
- Wheat plant response rating (wheat [2]; [9]): 65
- Plant response rating (scale of 0 to 100), Lambsquarters (lambsquarters [3]): 100
- Lambsquarters plant response rating (lambsquarters [3]; [8]): 98
- Plant response rating, Lambsquarters (lambsquarters [3]; 13 to 15 days): 98
- Lambsquarters plant response rating (lambsquarters [3]; [9]): 100
- Kochia plant response rating (kochia; Postemergence, 31 g ai/ha): 50
- Plant response rating, Kochia (kochia; [5]): 70
- Plant response rating, Kochia (kochia; [6]): 55
- Plant response rating, Kochia (kochia; [7]): 55
- Wheat plant response rating (wheat [4]; [13]): 70
- Wheat plant response rating (wheat [4]; [14]): 70
- Plant response rating (scale of 0 to 100), Corn (corn): 85
- Corn plant response rating (corn; [8]): 40
- Plant response rating, Corn (corn; 13 to 15 days): 60
- Corn plant response rating (corn; [9]): 70
- Pigweed plant response rating (pigweed; [15]): 100
- Pigweed plant response rating (pigweed; [16]): 100
- Plant response rating (scale of 0 to 100), Galium (galium): 98
- Galium plant response rating (galium; [8]): 65
- Plant response rating, Galium (galium; 13 to 15 days): 95
- Galium plant response rating (galium; [9]): 98

Structure (SMILES): CCCNC(=O)c1cc(CC)n(Cc2cccc(OC(F)(F)F)c2)n1 [Compound 27]
- Lambsquarters plant response rating (lambsquarters [1]; Postemergence, 31 g ai/ha): 50
- Plant response rating, Lambsquarters (lambsquarters [1]; [5]): 65
- Plant response rating, Lambsquarters (lambsquarters [1]; [6]): 50
- Plant response rating, Lambsquarters (lambsquarters [1]; [7]): 50
- Crabgrass, Large plant response rating (crabgrass, large; Postemergence, 31 g ai/ha): 0
- Plant response rating, Crabgrass, Large (crabgrass, large; [5]): 45
- Plant response rating, Crabgrass, Large (crabgrass, large; [6]): 5
- Plant response rating, Crabgrass, Large (crabgrass, large; [7]): 10
- Plant response rating, Ryegrass, Italian (ryegrass, Italian; [10]): 15
- Plant response rating, Ryegrass, Italian (ryegrass, Italian; [11]): 5
- Plant response rating, Ryegrass, Italian (ryegrass, Italian; [12]): 10
- Kochia plant response rating (kochia; Postemergence, 31 g ai/ha): 35
- Plant response rating, Kochia (kochia; [5]): 95
- Plant response rating, Kochia (kochia; [6]): 70
- Plant response rating, Kochia (kochia; [7]): 80
- Wheat plant response rating (wheat [4]; Postemergence, 1000 g ai/ha, visual rating after approx. 10 days, 0 to 100 scale (0 no effect, 100 complete control)): 40
- Pigweed plant response rating (pigweed; Preemergence, 1000 g ai/ha, 0 no effect, 100 complete control): 90

Structure (SMILES): CCONC(=O)c1cc(CC)n(Cc2cccc(OC(F)(F)F)c2)n1 [Compound 72]
- Lambsquarters plant response rating (lambsquarters [1]; Postemergence, 31 g ai/ha): 60
- Lambsquarters plant response rating (lambsquarters [1]; postemergence, 62 g ai/ha): 70
- Plant response rating, Lambsquarters (lambsquarters [1]; [5]): 98
- Plant response rating, Lambsquarters (lambsquarters [1]; [7]): 90
- Crabgrass, Large plant response rating (crabgrass, large; Postemergence, 31 g ai/ha): 5
- Crabgrass, Large plant response rating (crabgrass, large; postemergence, 62 g ai/ha): 5
- Plant response rating, Crabgrass, Large (crabgrass, large; [5]): 25
- Plant response rating, Crabgrass, Large (crabgrass, large; [7]): 5
- Plant response rating (scale of 0 to 100), Ragweed (ragweed): 60
- Ragweed plant response rating (ragweed; [8]): 0
- Plant response rating, Ragweed (ragweed; 13 to 15 days): 50
- Ragweed plant response rating (ragweed; [9]): 55
- Ryegrass, Italian plant response rating (ryegrass, Italian; 62 g ai/ha, scale 0 to 100): 10
- Plant response rating, Ryegrass, Italian (ryegrass, Italian; [10]): 40
- Plant response rating, Ryegrass, Italian (ryegrass, Italian; [12]): 15
- Plant response rating (scale of 0 to 100), Wheat (wheat [2]): 85
- Wheat plant response rating (wheat [2]; [8]): 5
- Plant response rating, Wheat (wheat [2]; 13 to 15 days): 20
- Wheat plant response rating (wheat [2]; [9]): 50
- Plant response rating (scale of 0 to 100), Lambsquarters (lambsquarters [3]): 100
- Lambsquarters plant response rating (lambsquarters [3]; [8]): 100
- Plant response rating, Lambsquarters (lambsquarters [3]; 13 to 15 days): 100
- Lambsquarters plant response rating (lambsquarters [3]; [9]): 100
- Kochia plant response rating (kochia; Postemergence, 31 g ai/ha): 10
- Kochia plant response rating (kochia; postemergence, 62 g ai/ha): 25
- Plant response rating, Kochia (kochia; [5]): 55
- Plant response rating, Kochia (kochia; [7]): 40
- Wheat plant response rating (wheat [4]; [13]): 80
- Wheat plant response rating (wheat [4]; [14]): 70
- Plant response rating (scale of 0 to 100), Corn (corn): 75
- Corn plant response rating (corn; [8]): 30
- Plant response rating, Corn (corn; 13 to 15 days): 45
- Corn plant response rating (corn; [9]): 60
- Pigweed plant response rating (pigweed; [15]): 100
- Pigweed plant response rating (pigweed; [16]): 100
- Plant response rating (scale of 0 to 100), Galium (galium): 100
- Galium plant response rating (galium; [8]): 70
- Plant response rating, Galium (galium; 13 to 15 days): 98
- Galium plant response rating (galium; [9]): 100
